We go through one compound from PMC6410202, “Dual Action of the PN159/KLAL/MAP Peptide: Increase of Drug Penetration across Caco-2 Intestinal Barrier Model by Modulation of Tight Junctions and Plasma Membrane Permeability” (Pharmaceutics, 2019).

One data set relates to Caco-2 cells. The data set can be described thus: Impedance measurement (RTCA), Caco-2 cells. The format is cell-based. The settings on record: PN159 1-100 μM, 1-h or one-day treatment. Here is the method: Kinetics of epithelial cell reaction to PN159 peptide treatment was monitored by impedance measurement at 10 kHz (RTCA-SP instrument, ACEA Biosciences, San Diego, CA, USA). Impedance measurement is non-invasive, label-free and real time, and linearly correlates with adherence, growth, number and viability of cells. For background measurements 50 μL cell culture medium was added to the wells, then cells were seeded at a density of 6 × 10^3 cells/well to the coated 96-well plates with integrated gold electrodes (E-plate 96, ACEA Biosciences). Cells were cultured for 5–7 days in a CO2 incubator at 37 °C and monitored every 10 min until the end of experiments. Cells were treated with PN159 peptide solutions at 1, 3, 10, 30 and 100 μM concentrations at the beginning of the plateau phase of growth and the effects were followed for 1-h or 24 h. To measure cell recovery, peptide solutions were changed to culture medium and the impedance was monitored for one week. Culture medium was changed every 2 days. Caco-2 cells were also treated with the three selected CPPs, Pep-1, R8 and φ-peptide, at 100 μM concentrations at the beginning of the plateau phase of cell growth for 24-h. Triton X-100 detergent (1 mg/mL) was used as a reference compound to induce cell death. Cell index was defined as Rn-Rb at each time point of measurement, where Rn is the cell-electrode impedance of the well when it contains cells and Rb is the background impedance of the well with the medium alone.

The test system of the next data set is Caco-2 cell layers. As to the kind of experiment: Transepithelial electrical resistance (TEER) of Caco-2 cell layers. The following applies: for TEER, % of the control value: PN159 10 μM. The format is cell-based, human. Here is the method:
For the measurement of barrier integrity Caco-2 cells were seeded onto culture inserts (Transwell 3460, polyester membrane, 0.4 µm pore size, Corning Costar) and cultured for three weeks. Transepithelial electrical resistance (TEER) reflects the tightness of the intercellular junctions. […]. Resistance of cell-free inserts (130 Ω × cm^2) was subtracted from the measured values. TEER values were measured before and right after permeability experiments). TEER values indicated the integrity and paracellular permeability of cell layers for ions. The TEER of Caco-2 monolayers was 1302 ± 49 Ω × cm^2 (mean ± SD; n = 46) after 3 weeks culturing. For the recovery experiment, after changing the 10 μM peptide solutions to culture medium, TEER was monitored for one day.

The subject of data set [1] is respiratory epithelial tissue (EpiAirway model). The arrangement: method as in PMID 16625659. The following applies: 1-h treatment; cited from earlier work.
In a further data set the test system is claudin-5. Also on record: method as in PMID 26869428. The following applies: affinity measurements; cited from earlier work.

With `CC(C)C[C@H](NC(=O)[C@H](C)NC(=O)[C@H](CCCCN)NC(=O)[C@H](CC(C)C)NC(=O)[C@H](C)NC(=O)[C@H](CC(C)C)NC(=O)[C@H](CCCCN)NC(=O)[C@H](CC(C)C)NC(=O)[C@H](C)NC(=O)[C@H](CC(C)C)NC(=O)[C@@H](N)CCCCN)C(=O)N[C@@H](CCCCN)C(=O)N[C@@H](C)C(=O)N[C@@H](C)C(=O)N[C@@H](CC(C)C)C(=O)N[C@@H](CCCCN)C(=O)N[C@@H](CC(C)C)C(=O)N[C@@H](C)C(N)=O` [PN159], in the data set on Caco-2 cells, the “Cell impedance (normalized cell index)” value is listed as “only the two highest peptide concentrations decreased the cell impedance”. Also, in the data set with Caco-2 cell layers (20 h after removal of PN159 (10 μM, 30 min)), the TEER recovery entry was “complete recovery”. The “TEER, % of the control value” stood at 42% in the data set on Caco-2 cell layers (1-min treatment), 16% with Caco-2 cell layers (5 min), 2.7% in the data set on Caco-2 cell layers (15 min) and 1.4% with Caco-2 cell layers (30 min). The “Decrease in TEER” value in the data set on Caco-2 cell layers (PN159 10 and 30 μM, 1-h treatment) is given as 80–90%. Further, the “Resistance of epithelial cell layers (TEER)” value in the data set with Caco-2 cell layers (all tested concentrations (1, 3, 10, 30 μM), 1-h treatment) is reported as “significantly decreased the resistance”. The “Safe concentration (MTT)” value in data set [1] is “up to 100 μM”. For the same compound, the Binding entry in the data set with claudin-5 is given as “in the micromolar range”.
